Experiments:
human Sirt2 = target: T1, human Sirt2 (Homo sapiens, UniProt Q8IXJ6); assay: Homogeneous ZMAL-based fluorescence assay, Sirt2; type: biochemical; settings: 4th round
T1 construct: made in house; host or cells: E. coli BL21 Star (DE3)
T1 sequence (Q8IXJ6 56-356): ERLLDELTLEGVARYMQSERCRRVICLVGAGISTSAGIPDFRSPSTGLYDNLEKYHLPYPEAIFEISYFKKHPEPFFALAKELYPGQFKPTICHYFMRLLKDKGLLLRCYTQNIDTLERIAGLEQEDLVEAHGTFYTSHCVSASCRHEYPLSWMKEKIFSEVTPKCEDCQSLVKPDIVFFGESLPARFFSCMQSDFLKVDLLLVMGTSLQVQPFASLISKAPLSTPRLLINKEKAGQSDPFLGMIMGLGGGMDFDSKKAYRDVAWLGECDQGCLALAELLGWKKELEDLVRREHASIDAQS
Method: (§1) Recombinant human Sirt5_37−310 was purchased readily in Tris Buffer [25 mM Tris, 100 mM NaCl, 5 mM DTT, 10% glycerol (v/v)] from Enzo Life Sciences (NY, USA). Human Sirt3_118−395 was expressed and purified as described previously ([54]). For expression of human Sirt1_134−747 and Sirt2_56−356 chemically competent cells of E. coli BL21 Star (DE3) were transformed with the expression vectors pET30S-hSirt1_134−747 or pET30S-hSirt2_56−356. Bacteria were grown at 37°C in 2×YT medium supplemented with 50 μg·mL^−1 of kanamycin to an OD600 of 0.6. Then isopropyl-β-D-1-thiogalactopyranoside (IPTG) was added to a final concentration of 1 mM to induce gene expression. After further cultivation at 20°C for 12 h, the cells were harvested by centrifugation for 15 min at 5,000 g. The cells were resuspended in lysis buffer [100 mM Tris/HCl buffer at pH 8.0, 150 mM NaCl and 10% (v/v) glycerol] and disrupted by ultrasonication (Branson Digital Sonifier 250) at 70% amplitude for 10 min (3 s working, 10 s pause). The crude extract was cleared by centrifugation at 100,000 g for 1 h, and the supernatant was loaded onto a Strep-Tactin Superflow cartridge (5 ml bed volume, IBA Lifescience, Germany). Target proteins were eluted with lysis buffer containing 5 mM D-Desthiobiotin (IBA Lifescience, Germany) and further separated by size-exclusion chromatography (Superdex S200 26/60, GE Healthcare, IL, USA) equilibrated in Tris/HCl buffer (20 mM, 150 mM NaCl, pH 8.0). Pure protein was concentrated by ultrafiltration, flash-frozen in liquid nitrogen and stored at −80°C until further use. Identity as well as purity were verified by SDS-PAGE ([55]) and protein concentration was determined by the bicinchoninic acid (BCA) method, using bovine serum albumin (BSA) as a standard ([56]). Deacetylase activity was confirmed to be NAD^+-dependent and could be inhibited with the physiological sirtuin inhibitor nicotinamide.
(§2) All compounds were tested in the trypsin-coupled high-throughput ZMAL-assay in black 96-well plates (OptiPlateTM−96F, black, 96 well, Pinch bar design, PerkinElmer, USA), using ZMAL (Z-Lys(acetyl)-AMC) as a substrate ([57]). Sirt1_134−747, Sirt2_56−356, and Sirt3_118−395 were mixed with 5 μL substrate (10.5 μM final assay concentration, diluted from a […] stock in DMSO) and 3 μL Inhibitor in DMSO at various concentrations or DMSO as a control [final DMSO concentration 5% (v/v)]. The mixture was supplemented with assay buffer (50 mM Tris/HCl, 137 mM NaCl, 2.7 mM KCl, 1 mM MgCL2, pH 8.0) to a total volume of 55 μL. Enzyme concentration was adjusted to get a final conversion of 20–30%. Addition of 5 μL NAD^+ (6 mM in assay buffer, final assay concentration of 500 μM) initiated the catalytic reaction and the plates were incubated at 37°C for 4 h with agitation at 140 rpm. The catalytic reaction was stopped by addition of 60 μL stop solution [50 mM Tris, 100 mM NaCl, 6.7% (V/V) DMSO, 5.5 U/μL trypsin, 8 μM nicotinamide, pH 8.0]. The plate was again incubated at 37°C and 140 rpm for 20 min to release free AMC from the deacetylated substrate by trypsin digestion. Afterwards, fluorescence intensity was measured in a microplate reader (λEx = 390 nm, λEm = 460 nm, BMG POLARstar Optima, BMG Labtech, Germany). An enzyme-free blank control and a 100% conversion control containing AMC instead of ZMAL were measured in addition. Inhibition was calculated in % in relation to a DMSO control after blank signal subtraction and IC50 values were determined using a non-linear regression to fit the dose-response curve with OriginPro 9G (OriginLab, USA). Pre-tests as well as IC50 determination was carried out at least twice in duplicates.

Sirt1 = target: T2, Sirt1 (Homo sapiens, UniProt Q96EB6); assay: Homogeneous ZMAL-based fluorescence assay, Sirt1; type: biochemical; settings: 4th round
T2 construct: made in house; host or cells: E. coli BL21 Star (DE3)
T2 sequence (Q96EB6 134-747): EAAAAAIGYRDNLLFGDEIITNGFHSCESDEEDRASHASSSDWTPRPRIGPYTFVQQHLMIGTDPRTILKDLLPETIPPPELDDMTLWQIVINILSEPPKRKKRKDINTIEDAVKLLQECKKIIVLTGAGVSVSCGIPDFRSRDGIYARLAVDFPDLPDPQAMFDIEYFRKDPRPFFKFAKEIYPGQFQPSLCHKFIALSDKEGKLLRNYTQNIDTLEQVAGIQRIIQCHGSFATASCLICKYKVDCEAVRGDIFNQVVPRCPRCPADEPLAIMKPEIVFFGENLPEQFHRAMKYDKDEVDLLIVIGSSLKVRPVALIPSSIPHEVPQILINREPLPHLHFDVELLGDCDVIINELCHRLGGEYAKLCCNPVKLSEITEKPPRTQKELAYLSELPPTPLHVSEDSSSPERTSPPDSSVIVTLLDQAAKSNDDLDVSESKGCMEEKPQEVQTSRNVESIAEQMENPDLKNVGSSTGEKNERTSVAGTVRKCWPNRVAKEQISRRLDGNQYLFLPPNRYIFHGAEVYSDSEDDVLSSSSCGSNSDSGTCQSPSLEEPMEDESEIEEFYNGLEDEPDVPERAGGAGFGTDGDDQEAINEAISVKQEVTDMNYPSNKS
Method: as §1, §2

HeLa cells = assay: Cell proliferation assay with HeLa cells; type: cell-based, human; settings: EX-527 20 μM, S1th 13 12 μM, S1th 12 20 μM, S1th 10 30 μM; up to 120 h
Method: 1.5 × 10^4 cells/well were seeded in 24-well plates and grown in DMEM 10% in presence of DMSO, 20 μM EX-527, 12 μM S1th 13, 20 μM S1th 12, or 30 μM S1th 10. The growth media containing the drugs was replaced every 48 h. Cells were collected and counted at the indicated times starting 24 h after seeding (0, 24, 48, 72, 96, and 120 h). The experiment was performed twice in duplicates.

Row | inhibition at 50 µM (human Sirt2) | IC50 (Sirt1) | Compound | cell proliferation of HeLa cells (HeLa cells)
1 | < 10% | 5.2 ± 1 µM | N#CSc1cccc(NS(=O)(=O)c2ccc3c(c2)OCCO3)c1 [S1th 13] | significantly decreased cell proliferation
2 | < 10% | 6.3 ± 0.8 µM | CCCCNC(=O)Nc1cccc(SC#N)c1 [S1th 11] | –
3 | < 10% | 5.9 ± 1.4 µM | COc1ccc(SC#N)cc1OCC(=O)N(CCC#N)CCC#N [S1th 12] | only showed a mild effect
4 | < 10% | 23 ± 6 µM | N#CSc1cccc(NC(=O)[C@H]2CC=CC[C@H]2C(=O)O)c1 [S1th 10] | significantly decreased cell proliferation

Row | Compound | inhibition at 50 µM (human Sirt2) | IC50 (Sirt1) | cell proliferation of HeLa cells (HeLa cells)
5 | N#CSc1cc(SC#N)c(N)nc1N [PR-619, reference compound] | 36% | 2.7 ± 0.2 µM | –

— publication PMC7203344, “Sirtuin 1 Inhibiting Thiocyanates (S1th)—A New Class of Isotype Selective Inhibitors of NAD^+ Dependent Lysine Deacetylases” (Frontiers in Oncology, 2020)
